Measurements from US8703761B2, “Organic compounds” (Novartis AG, priority 2008, dated 2014).

Target: human DGAT1 (Homo sapiens (Human), UniProt O75907)
Assay: DGAT1 Inhibition Assay
Type: biochemical
Details: membrane preparation from Sf9 cells overexpressing human (His)6DGAT1; LC/MS/MS readout
Description: The enzyme preparation used in this assay is a membrane preparation from Sf9 cells overexpressing human (His)6DGAT1. During all steps samples were chilled to 4° C. Sf9 cells expressing human (His)6DGAT1 were thawed at room temperature and re-suspended at a 10:1 ratio (mL buffer/g of cells) in 50 mM HEPES, 1× Complete Protease Inhibitor, pH 7.5. The re-suspended pellet was homogenized for 1 min using a Brinkman PT 10/35 homogenizer with a 20 mm generator. Cells were lysed using Avestin Emulsiflex (chilled to 4° C.) at 10000-15000 psi. Lysate was centrifuged at 100,000×g for 1 h at 4° C. Supernatant was removed and pellets were re-suspended in 50 mM HEPES, 1× Complete Protease Inhibitor, pH 7.5 at ⅙ the volume of supernatant. Re-suspended pellets were pooled and homogenized with 10 strokes of a Glas-Col motor driven teflon pestle on setting 70. The protein concentration of the membrane preparation was quantified using BCA protein assay with 1% SDS. The membrane preparation was aliquoted, frozen on dry ice, and stored at −80° C.
For 50 mL, 25 mL of 0.2 M HEPES stock buffer, 0.5 mL of 1 M MgCl2 ([…]), and 24.5 mL of milli-Q H2O are added to the 55 mL Wheaton Potter-Elvehjem homogenizer. Enzyme preparation (0.1 mL) is added to buffer and the mixture is homogenized with 5 strokes on ice using the Glas-Col variable speed homogenizer system on setting 70.
For 50 mL, 0.5 mL 10 mM diolein is added to 9.5 mL of EtOH in a 50 mL Falcon screw cap conical centrifuge tube. Five mL of 10 mM sodium acetate pH 4.5 is added followed by 0.5 mL of 10 mM oleoyl-CoA. Finally, the remaining 4.5 mL of 10 mM sodium acetate pH 4.5 is added followed by 30 mL of milli-Q H20. The solution should be gently agitated by hand to induce mixing. The final concentrations of EtOH and sodium acetate are 20% and 2 mM, respectively.
Dry compounds are dissolved in the appropriate volume of DMSO to a final concentration of 10 mM. A 10-point, 3-fold dose response is used to evaluate compound potency. All dilutions are performed in DMSO in a Greiner 384-well microplate. • 1. 2 μL of compound in DMSO is added to the appropriate wells, 2 μL of DMSO is added to 100% activity and 100% inhibition controls. • 2. 25 μL of enzyme mix is added to all wells and plate(s) are incubated for 10 min at RT. • 3. 10 μL of 20% acetic acid quench is added to 100% inhibition control wells. Plate(s) are vortexed using Troemner multi-tube vortexer (setting 7 for 10 sec). • 4. 25 μL of substrate mix is added to all wells. Plate(s) are vortexed using Troemner multi-tube vortexer (setting 7 for 10 sec). Plate(s) are incubated for 30 min at RT. • 5. 10 μL of 20% acetic acid quench is added to all wells. Plate(s) are vortexed using Troemner multi-tube vortexer (setting 7 for 10 sec). • 6. 50 μL of 1-butanol w/glyceryl tripalmitoleate internal standard is added to all wells. • 7. Plate(s) are sealed with super pierce strong plate sealer using the thermo-sealer. • 8. Plate(s) are vortexed using Troemner multi-tube vortexer (setting 10 for 5 min). • 9. Plate(s) are centrifuged at 162×g (1000 rpm for GH-3.8 rotor) for 5 min using Beckman GS-6R tabletop centrifuge.
Samples were analyzed by LC/MS/MS using a Waters 1525μ LC and Quattro Micro API MS. Where indicated, tripalmitolein was used as an internal standard to control for instrument variation.
Data is converted to % inhibition prior to curve fitting using the following equation: […]

human DGAT1, sequence (O75907 whole entry): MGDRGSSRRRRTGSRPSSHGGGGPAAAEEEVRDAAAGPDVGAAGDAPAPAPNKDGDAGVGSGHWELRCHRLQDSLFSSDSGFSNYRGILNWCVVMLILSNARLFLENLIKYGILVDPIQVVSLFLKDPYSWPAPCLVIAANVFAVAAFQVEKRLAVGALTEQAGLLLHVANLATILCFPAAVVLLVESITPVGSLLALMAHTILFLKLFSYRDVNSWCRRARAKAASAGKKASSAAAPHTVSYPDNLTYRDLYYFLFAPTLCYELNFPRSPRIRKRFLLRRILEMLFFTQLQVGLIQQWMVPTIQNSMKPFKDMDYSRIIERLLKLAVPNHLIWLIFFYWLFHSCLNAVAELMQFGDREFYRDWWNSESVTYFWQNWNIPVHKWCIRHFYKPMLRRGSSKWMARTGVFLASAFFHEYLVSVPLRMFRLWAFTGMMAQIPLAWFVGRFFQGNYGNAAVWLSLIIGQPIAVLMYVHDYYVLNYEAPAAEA

For CC(C)(NC(=O)c1ccc2occc2c1)C(=O)Nc1nc(-c2ccccc2)c(Cc2ccccc2)s1 [Example 1-28, Benzofuran-5-carboxylic acid [1-(5-benzyl-4-phenyl-thiazol-2-ylcarbamoyl)-1-methyl-ethyl]-amide], the IC50 was 11 nM.
For CC(C)(NS(=O)(=O)c1ccc(F)cc1)C(=O)Nc1nc(-c2ccccc2)c(Cc2ccccc2)s1 [Example 1-6, N-(5-Benzyl-4-phenyl-thiazol-2-yl)-2-(4-fluoro-benzenesulfonylamino)-2-methyl-propionamide], the IC50 was 241 nM.
For CCOc1ccc(C(=O)NC(C)(C)C(=O)Nc2nc(-c3ccccc3)c(Cc3ccccc3)s2)cc1OCC [Example 1-1, N-[1-(5-Benzyl-4-phenyl-thiazol-2-ylcarbamoyl)-1-methyl-ethyl]-3,4-diethoxy-benzamide], the IC50 was 60.5 nM.
Cc1ccc(-c2cc(NC(=O)[C@@H]3CCCN3C(=O)OC(C)(C)C)nc(-c3ccccc3)c2)cc1 [Example 8-2, (S)-2-(6-Phenyl-4-p-tolyl-pyridin-2-ylcarbamoyl)-pyrrolidine-1-carboxylic acid tert-butyl ester] gave an IC50 of 240 nM.
CC(C)(NC(=O)N1CCCOCC1)C(=O)Nc1nc(C(F)(F)F)c(C(=O)c2ccc(F)cc2)s1 [Example 12-4, [1,4]Oxazepane-4-carboxylic acid {1-[5-(4-fluoro-benzoyl)-4-trifluoromethyl-thiazol-2-ylcarbamoyl]-1-methyl-ethyl}-amide] was tested, and the IC50 was 2080 nM.
In the case of CC(C)(NC(=O)c1cnco1)C(=O)Nc1nc(-c2ccc(F)cc2)n(Cc2ccccc2)n1 [Example 14-24, Oxazole-5-carboxylic acid {1-[1-benzyl-5-(4-fluoro-phenyl)-1H-[1,2,4]triazol-3-ylcarbamoyl]-1-methyl-ethyl}-amide], the IC50 is reported as 1750 nM.
CC(C)(NC(=O)c1ccc(OC(F)(F)F)cc1)C(=O)Nc1nc(-c2ccc(F)cc2)c(Oc2ccc(F)cc2)s1 [Example 6-1, N-{1-[5-(4-Fluoro-phenoxy)-4-(4-fluoro-phenyl)-thiazol-2-ylcarbamoyl]-1-methyl-ethyl}-4-trifluoromethoxybenzamide] showed an IC50 of 910 nM.
Work on CC(C)(NC(=O)c1ccccn1)C(=O)Nc1nc(-c2ccc(F)cc2)n(Cc2ccccc2)n1 [Example 14-4, Pyridine-2-carboxylic acid {1-[1-benzyl-5-(4-fluoro-phenyl)-1H-[1,2,4]triazol-3-ylcarbamoyl]-1-methyl-ethyl}-amide] yielded an IC50 of 225 nM.
In the case of Cc1cc(C(=O)NC(C)(C)C(=O)Nc2nc(-c3ccc(F)cc3)n(Cc3ccccc3)n2)no1 [Example 14-28, 5-Methyl-isoxazole-3-carboxylic acid {1-[1-benzyl-5-(4-fluoro-phenyl)-1H-[1,2,4]triazol-3-ylcarbamoyl]-1-methyl-ethyl}-amide], the IC50 is reported as 6130 nM.
For Cc1ccccc1NC(=O)N1CCCC1C(=O)Nc1nc(-c2ccccc2)c(Cc2ccccc2)s1 (stereo not shown) [Example 4-2, Pyrrolidine-1,2-dicarboxylic acid 2-[(5-benzyl-4-phenyl-thiazol-2-yl)-amide] 1-o-tolylamide], the IC50 was 232 nM.
For CC(C)(NC(=O)c1cncs1)C(=O)Nc1nc(-c2ccc(F)cc2)c(Oc2ccc(F)cc2)s1 [Example 6-14, Thiazole-5-carboxylic acid {1-[5-(4-fluoro-phenoxy)-4-(4-fluoro-phenyl)-thiazol-2-ylcarbamoyl]-1-methyl-ethyl}-amide], the IC50 was 197 nM.
Molecule O=C(Nc1cc(-c2ccccc2)c2ccccc2n1)C1CCCN1C(=O)CC1CCCC1 (stereo in doubt) [Example 8-1, (S)-1-(2-Cyclopentyl-acetyl)-pyrrolidine-2-carboxylic acid (4-phenyl-quinolin-2-yl)-amide] has an IC50 of 54.5 nM.
CC1(C(=O)NC(C)(C)C(=O)Nc2nc(C(F)(F)F)c(C(=O)c3ccc(F)cc3)s2)CC1 [Example 12-3, 1-Methyl-cyclopropanecarboxylic acid {1-[5-(4-fluoro-benzoyl)-4-trifluoromethyl-thiazol-2-ylcarbamoyl]-1-methyl-ethyl}-amide] was tested, and the IC50 was 1180 nM.
Work on CC(C)(NC(=O)c1cccnc1)C(=O)Nc1nc(-c2ccc(F)cc2)c(Oc2ccc(F)cc2)s1 [Example 6-9, N-{1-[5-(4-Fluoro-phenoxy)-4-(4-fluoro-phenyl)-thiazol-2-ylcarbamoyl]-1-methyl-ethyl}-nicotinamide] yielded an IC50 of 622 nM.
Work on O=C(Nc1nc(-c2ccccc2)c(Cc2ccccc2)s1)[C@@H]1CCCN1C(=O)Nc1ccc(C(F)(F)F)cc1F [Example 4-9, (S)-Pyrrolidine-1,2-dicarboxylic acid 2-[(5-benzyl-4-phenyl-thiazol-2-yl)-amide] 1-[(2-fluoro-4-trifluoromethyl-phenyl)-amide]] yielded an IC50 of 473 nM.
With CC(C)(NC(=O)N1CCOCC1)C(=O)Nc1nc(-c2ccc(F)cc2)c(Oc2ccc(F)cc2)s1 [Example 6-2, Morpholine-4-carboxylic acid {1-[5-(4-fluoro-phenoxy)-4-(4-fluoro-phenyl)-thiazol-2-ylcarbamoyl]-1-methyl-ethyl}-amide] the IC50 was 52.5 nM.
For CN1CCC[C@H]1C(=O)NC(C)(C)C(=O)Nc1nc(-c2ccc(F)cc2)n(Cc2ccccc2)n1 [Example 14-3, (S)-1-Methyl-pyrrolidine-2-carboxylic acid {1-[1-benzyl-5-(4-fluoro-phenyl)-1H-[1,2,4]triazol-3-ylcarbamoyl]-1-methyl-ethyl}-amide], the IC50 was 2300 nM.
COc1ccccc1C(=O)NC(C)(C)C(=O)Nc1nc(-c2ccccc2)c(Cc2ccccc2)s1 [Example 1-8, N-[1-(5-Benzyl-4-phenyl-thiazol-2-ylcarbamoyl)-1-methyl-ethyl]-2-methoxy-benzamide] was tested, and the IC50 was 8.5 nM.
CC(C)(NC(=O)c1ccccn1)C(=O)Nc1nc(-c2ccccc2)c(Cc2ccccc2)s1 [Example 1-29, Pyridine-2-carboxylic acid [1-(5-benzyl-4-phenyl-thiazol-2-ylcarbamoyl)-1-methyl-ethyl]-amide] was tested, and the IC50 was 3.5 nM.
